According to publication PMC7604827 (Bioorganic & medicinal chemistry, 2011):
Where a name gives a salt, the structure may show the parent alone. Read-outs that look alike come from different tables or passages of the source. Values belong to the compound of their own block, whether it stands above or below them.

Columns and labels:
[1] = system: cell–cell fusion reaction between target cells expressing CD4/CCR5 and effector cells expressing the envelope protein of HIV-1; type: cell-based
[2] = rat, 10 mg/kg, po
[3] = pH 6.8; cited from earlier work
human CCR5 [4] = target: T1, human CCR5 (Homo sapiens, UniProt P51681); details: (3R,1′R)-configuration versus other stereoisomers; cited from earlier work
[5] = system: broad panel of receptors and transporters including the other chemokines; test: Broad panel of receptors and transporters including the other chemokines
CCR5/hRANTES = CCR5/hRANTES (Cavia porcellus, UniProt A0A286Y1F6); details: read-out: CCR5/hRANTES Ca assay IC50; Guinea pig
[6] = up to the dosage of 100 mg/kg, po
in vivo = details: rat, po, 10 mg/kg
human CCR5 [7] = target: T1, human CCR5; type: cell-based
HIV-1Ba-L (R5) = details: inhibition of HIV p24 antigen expression in PBMC, mean ± SD, triplicate
HIV-1MM (R5MDR) = details: read-out: Anti-HIV-1 activity HIV-1MM (R5MDR) IC50 ± SD; inhibition of HIV p24 antigen expression in PBMC, mean ± SD, triplicate

T1 sequence (P51681 whole entry): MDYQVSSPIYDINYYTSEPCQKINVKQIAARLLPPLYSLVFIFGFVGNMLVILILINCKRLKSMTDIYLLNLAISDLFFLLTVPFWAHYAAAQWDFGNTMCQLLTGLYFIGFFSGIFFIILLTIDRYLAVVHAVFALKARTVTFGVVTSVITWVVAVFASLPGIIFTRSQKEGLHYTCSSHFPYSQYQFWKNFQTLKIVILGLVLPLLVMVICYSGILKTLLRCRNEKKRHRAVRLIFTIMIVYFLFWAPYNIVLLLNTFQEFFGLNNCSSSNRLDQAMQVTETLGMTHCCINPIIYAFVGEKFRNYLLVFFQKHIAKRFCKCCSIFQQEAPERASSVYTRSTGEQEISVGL
Chain of CCR5/hRANTES (A0A286Y1F6 1-353): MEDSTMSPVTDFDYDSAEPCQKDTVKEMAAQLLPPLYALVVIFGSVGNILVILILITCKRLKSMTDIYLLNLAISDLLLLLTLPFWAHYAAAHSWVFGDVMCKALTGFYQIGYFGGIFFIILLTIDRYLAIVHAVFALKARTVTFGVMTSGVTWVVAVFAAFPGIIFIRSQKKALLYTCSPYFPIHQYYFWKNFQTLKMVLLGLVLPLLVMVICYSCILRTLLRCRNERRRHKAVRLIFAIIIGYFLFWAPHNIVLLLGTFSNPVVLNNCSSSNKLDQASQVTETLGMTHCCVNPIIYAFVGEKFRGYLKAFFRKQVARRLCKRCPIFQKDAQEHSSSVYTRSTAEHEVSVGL

Compound: CCCCN1C(=O)[C@@H](C(O)C2CCC(O)CC2)NC(=O)C12CCN(Cc1ccc(Oc3ccc(C(=O)O)cc3)cc1)CC2 (stereo in doubt) [Compound 20b, 4-[4-({(3R)-1-Butyl-3-[(R)-hydroxy(4-hydroxycyclohexyl)methyl]-2,5-dioxo-1,4,9-triazaspiro[5.5]undec-9-yl}methyl)phenoxy]benzoic acid hydrochloride]
IC50 ([1]; read-out: Fusion assay IC50): 129 nM

BA [2]: 1.3%
Compound: CCCCN1C(=O)C(C(C)C)NC(=O)C12CCN(Cc1ccc(Oc3ccccc3)cc1)CC2.Cl (stereo not drawn) [Compound 1]
aqueous solubility [3]: less than 0.2 μg/ml

BA [2]: 1.9%
Compound: CCCCN1C(=O)C(CC2CCCCC2)NC(=O)C12CCN(Cc1ccc(Oc3ccc(C(=O)NC)cc3)cc1)CC2.Cl (stereo not drawn) [Compound 2]

Compound: CCCCN1C(=O)[C@@H]([C@H](O)C(C)C)NC(=O)C12CCN(Cc1ccc(Oc3ccccc3)cc1)CC2.Cl [Compound 3]
fold more potency than the other stereoisomers in the Ca assay (human CCR5 [4]): 4.5–12 fold

BA [2]: 34%
Compound: CCCCN1C(=O)[C@H](CC2CCCCC2)NC(=O)C12CCN(Cc1ccc(Oc3ccc(C(=O)O)cc3)cc1)CC2.Cl [Compound 5]

Compound: CCCCN1C(=O)[C@@H]([C@H](O)C2CCCCC2)NC(=O)C12CCN(Cc1ccc(Oc3ccc(C(=O)O)cc3)cc1)CC2.Cl [Compound 6a, 4-[4-({(3R)-1-Butyl-3-[(R)-cyclohexyl(hydroxy)methyl]-2,5-dioxo-1,4,9-triazaspiro[5.5]undec-9-yl}methyl)phenoxy]benzoic acid hydrochloride]
AMES test result (AMES test): did not show any significant safety problem | activity against a broad panel of receptors and transporters [5]: no significant activity | BA [2]: 23% | IC50 (CCR5/hRANTES): > 30000 nM | 14-day rat safety study result [6]: did not show any significant safety problem

Compound: CCCCN1C(=O)[C@@H]([C@H](O)C2CCCCC2)NC(=O)C12CCN(Cc1ccc(Oc3ccc(O)cc3)cc1)CC2 [Compound 8, (3R)-1-Butyl-3-[(R)-cyclohexyl(hydroxy)methyl]-9-[4-(4-hydroxyphenoxy)benzyl]-1,4,9-triazaspiro[5.5]undecane-2,5-dione hydrochloride]
IC50 ([1]; read-out: Fusion assay IC50): 2.8 nM

Compound: CCCCN1C(=O)[C@@H]([C@H](O)C2CCCCC2)NC(=O)C12CCN(Cc1ccc(Oc3ccc(C(=O)NC)cc3)cc1)CC2.Cl [Compound 10, 4-[4-({(3R)-1-Butyl-3-[(R)-cyclohexyl(hydroxy)methyl]-2,5-dioxo-1,4,9-triazaspiro[5.5]undec-9-yl}methyl)phenoxy]-N-methylbenzamide hydrochloride]
BA [2]: 10% | AUC (in vivo): 1300 ng·h/mL | Cmax (in vivo): 333 ng/mL

BA [2]: 5% | AUC (in vivo): 242 ng·h/mL | Cmax (in vivo): 50 ng/mL
Compound: CCCCN1C(=O)[C@@H]([C@H](O)C2CCCCC2)NC(=O)C12CCN(Cc1ccc(Oc3ccc(NS(C)(=O)=O)cc3)cc1)CC2.Cl [Compound 13, N-{4-[4-({(3R)-1-Butyl-3-[(R)-cyclohexyl (hydroxy)methyl]-2,5-dioxo-1,4,9-triazaspiro[5.5]undec-9-yl}methyl)phenoxy]phenyl}methanesulfonamide hydrochloride]

Compound: CCCCN1C(=O)[C@@H]([C@H](O)C(C)C)NC(=O)C12CCN(Cc1ccc(Oc3ccc(C(=O)O)cc3)cc1)CC2.Cl [Compound 14, 4-[4-({(3R)-1-Butyl-3-[(1R)-1-hydroxy-2-methylpropyl]-2,5-dioxo-1,4,9-triazaspiro[5.5]undec-9-yl}methyl)phenoxy]benzoic acid hydrochloride]
BA [2]: 5.9% | AUC (in vivo): 150 ng·h/mL

Compound: CCCCN1C(=O)[C@@H]([C@H](O)C2CCOCC2)NC(=O)C12CCN(Cc1ccc(Oc3ccc(C(=O)O)cc3)cc1)CC2 [Compound 19, 4-[4-({(3R)-1-Butyl-3-[(R)-hydroxy(tetrahydro-2H-pyran-4-yl)methyl]-2,5-dioxo-1,4,9-triazaspiro[5.5]undec-9-yl}methyl)phenoxy]benzoic acid hydrochloride]
IC50 ([1]; read-out: Fusion assay IC50): 302 nM

Compound: CCCCN1C(=O)[C@@H]([C@H](O)C2CCC(O)CC2)NC(=O)C12CCN(Cc1ccc(Oc3ccc(C(=O)O)cc3)cc1)CC2 (stereo partly drawn) [Compound 20a, 4-[4-({(3R)-1-Butyl-3-[(R)-hydroxy(4-hydroxycyclohexyl)methyl]-2,5-dioxo-1,4,9-triazaspiro[5.5]undec-9-yl}methyl)phenoxy]benzoic acid hydrochloride]
IC50 ([1]; read-out: Fusion assay IC50): 537 nM

Compound: CNC(=O)c1ccc(Oc2ccc(CN3CCC4(CC3)C(=O)N[C@H]([C@H](O)C3CCCCC3)C(=O)N4C)cc2)cc1 [Compound 22, 4-[4-({(3R)-3-[(R)-Cyclohexyl(hydroxy)methyl]-1-methyl-2,5-dioxo-1,4,9-triazaspiro[5.5]undec-9-yl}methyl)phenoxy]-N-methylbenzamide hydrochloride]
IC50 ([1]; read-out: Fusion assay): 1860 nM

Compound: CCCN1C(=O)[C@@H]([C@H](O)C2CCCCC2)NC(=O)C12CCN(Cc1ccc(Oc3ccc(C(=O)O)cc3)cc1)CC2 [Compound 25, 4-[4-({(3R)-3-[(R)-Cyclohexyl(hydroxy)methyl]-2,5-dioxo-1-propyl-1,4,9-triazaspiro[5.5]undec-9-yl}methyl)phenoxy]benzoic acid hydrochloride]
IC50 ([1]; read-out: Fusion assay): 112 nM

Compound: CCCN1C(=O)[C@@H]([C@H](O)C2CCCCC2)NC(=O)C12CCN(Cc1ccc(Oc3ccc(C(=O)NC)cc3)cc1)CC2.Cl [Compound 26, 4-[4-({(3R)-3-[(R)-Cyclohexyl(hydroxy)methyl]-2,5-dioxo-1-propyl-1,4,9-triazaspiro[5.5]undec-9-yl}methyl)phenoxy]-N-methylbenzamide hydrochloride]
BA [2]: 11.2% | AUC (in vivo): 513 ng·h/mL | Cmax (in vivo): 133 ng/mL

Compound: CNC(=O)c1ccc(Oc2ccc(CN3CCC4(CC3)C(=O)N[C@H]([C@H](O)C3CCCCC3)C(=O)N4CCC(C)O)cc2)cc1 (stereo partly drawn) [Compound 30, 4-(4-{[(3R)-3-[(R)-Cyclohexyl(hydroxy)methyl]-1-(3-hydroxybutyl)-2,5-dioxo-1,4,9-triazaspiro[5.5]undec-9-yl]methyl}phenoxy)-N-methylbenzamide hydrochloride]
IC50 ([1]; read-out: Fusion assay): ~10000 nM

Compound: CNC(=O)c1ccc(Oc2ccc(CN3CCC4(CC3)C(=O)N[C@H]([C@H](O)C3CCCCC3)C(=O)N4CCN)cc2)cc1.Cl.Cl [Compound 32, 4-[4-({(3R)-1-(2-Aminoethyl)-3-[(R)-cyclohexyl(hydroxy)methyl]-2,5-dioxo-1,4,9-triazaspiro[5.5]undec-9-yl}methyl)phenoxy]-N-methylbenzamide dihydrochloride]
fold less potent antagonist activity relative to 10 (human CCR5 [7]): > 10 fold

Compound: CNC(=O)c1ccc(Oc2ccc(CN3CCC4(CC3)C(=O)N[C@H]([C@H](O)C3CCCCC3)C(=O)N4CCN(C)C)cc2)cc1.Cl.Cl [Compound 33, 4-[4-({(3R)-3-[(R)-Cyclohexyl(hydroxy)methyl]-1-[2-(dimethylamino)ethyl]-2,5-dioxo-1,4,9-triazaspiro[5.5]undec-9-yl}methyl)phenoxy]-N-methylbenzamide dihydrochloride]
fold less potent antagonist activity relative to 10 (human CCR5 [7]): > 10 fold

Compound: SCH-351125
IC50 (HIV-1Ba-L (R5); read-out: Anti-HIV-1 activity HIV-1Ba-L (R5) IC50 ± SD): 4 ± 2 nM | IC90 (HIV-1Ba-L (R5); read-out: Anti-HIV-1 activity HIV-1Ba-L (R5) IC90 ± SD): 79 ± 52 nM | IC50 (HIV-1MM (R5MDR)): 3 ± 0.5 nM
